Where two headings read alike, the source gives them in different places.
Tests used:
[1] = system: NLRP3-inflammasome; assay: In vitro stimulation of porcine PBMCs with LPS and ATP, IL-1β release; type: cell-based; details: porcine PBMCs and whole blood, LPS 1 µg/mL 3 h, then 5 mM ATP 1 h
Experimental: To confirm the ability of IZD334 to effectively attenuate porcine NLRP3-inflammasome signaling, we used a previously standardized study protocol. In short, porcine peripheral blood mononuclear cells (PBMCs) were isolated from healthy porcine animals. Whole blood samples and isolated PBMCs were stimulated with lipopolysaccharide (LPS) (1 µg/mL, L4516, Sigma-Aldrich, St. Louis, MO, USA) and increasing concentrations of IZD334. After three h of incubation, 5 mM adenosine triphosphate (ATP) (A1852, Sigma-Aldrich, St. Louis, MO, USA) was added for 1 h to induce inflammasome activation. IL-1β release was measured in the supernatant with a Luminex Immunoasssay specific for porcine IL-1β (EPX01A-66048-901, ProcartaTM Simplex, eBioscience, ThermoFisher, San Diego, CA, USA).
In short, porcine peripheral blood mononuclear cells (PBMCs) were isolated from healthy porcine animals using Ficoll density-gradient centrifugation. Whole blood samples and isolated PBMCs were stimulated with lipopolysaccharide (LPS) (1 µg/mL, L4516, Sigma-Aldrich, St. Louis, MO, USA) and increasing concentrations of IZD334 (top concentration of 10 µM with an 8-point half-log dilution). […] IL-1β release was measured in the supernatant with a Luminex Immunoasssay specific for porcine IL-1β (ProcartaTM Simplex, eBioscience, San Diego, CA, USA).

[2] = system: NLRP3-inflammasome; assay: Ex vivo stimulation assay of whole blood after in vivo IZD334 infusion, IL-1β release; design: species or system pigs; details: whole blood taken 60 min after in vivo infusion of 10 mg/kg, LPS + ATP; before infusion 11856 ± 1969 ng/mL, p < 0.001
Experimental: To more specifically determine in vivo target engagement, whole blood was obtained at baseline (prior to IZD334 infusion) and 60 min after in vivo IZD334 infusion (10 mg/kg). These samples were then stimulated with LPS and ATP in a similar fashion as in the previously described experiments. IL-1β release was measured in the supernatant with a Luminex Immunoassay specific for porcine IL-1β (ProcartaTM Simplex, eBioscience, San Diego, CA, USA).

[3] = system: pig model of myocardial infarction; assay: In vivo MI study: serological and histological read-outs; design: species or system pigs; details: 1, 3, 10 mg/kg groups
Experimental: Circulating leukocyte numbers at different time points after reperfusion were measured by whole-blood analysis using an automated hematological cell-counter (Cell-Dyn Sapphire, Abbott, Santa Clara, CA, USA). Plasma samples were obtained by whole-blood centrifugation at 1850× g and were immediately stored at −80 °C. C-reactive protein (CRP) levels were measured using solid phase DuoSet sandwich ELISA (DY1707, R&D Systems, Minneapolis, MN, USA) according to the manufacturer’s protocol. Troponin I levels were measured using a clinical chemistry analyzer (AU5811, Beckman Coulter, Woerden, The Netherlands). Histological analysis of collagen, myocardial immune cells, neutrophils, and monocyte infiltration is described in the Appendix A.
Infarcted and border zoned myocardial tissues were collected, and protein was isolated using a Roche protein isolation kit (cOmplete™ Lysis-M EDTA-free, Roche, Basel, Switzerland). IL-1β protein was measured with a Luminex Immunoassay specific for pig IL-1β (ProcartaPlex Pig IL-1β simplex Cat# EXP01A-66048-901 Invitrogen, Thermo Fisher Scientific, MA, USA) and corrected for total protein. For further histological analysis, infarcted and BZ myocardial tissue was processed, paraffin-imbedded, and cut into 5 µm sections after being conserved in 4% paraformaldehyde for 7 days. Cell nuclei were stained using hematoxylin, and area of cell infiltration was counted for each pig in 5 regions close to fibrotic areas in the infarct zone using Olympus CellSens software. Collagen was visualized using Picosirus Red staining (Abcam). The percentage of collagen was quantified using ImageJ software (1.47v).
Neutrophil infiltration in myocardial tissue was quantified in paraffin-embedded histological biopsies that were conserved in 4% formaldehyde for at least 7 days with a monoclonal mouse antibody against porcine neutrophils (Clone PM1, BMA Biomedicals, Augst, Switzerland) for 60 min and secondary incubation with Brightvision Poly-AP-anti-mouse (ImmunoLogic, Duiven, The Netherlands) for 30 min followed by development with liquid permanent red.
Monocyte infiltration was quantified in histological slides of myocardial tissue (paraffin and fresh frozen slides, respectively) using a monoclonal mouse anti-pig antibody against CD107a (Clone JM2E5, Bio-Rad, Kidlington, UK) or a mouse monoclonal antibody against CD14 (Ab23919, Abcam, Cambridge, UK); 60 min of incubation was followed by Brightvision Poly-AP-anti-mouse (ImmunoLogic, Duiven, The Netherlands) for 30 min and development with liquid permanent red.

[4] = system: pig model of myocardial infarction; assay: In vivo MI study: regional cardiac function and dobutamine echocardiography; design: species or system pigs; details: high-dose group (10 mg/kg), 7 days follow-up
Excerpt: Oral treatment was continued for six days. […] Animals were sacrificed by exsanguination under anesthesia.
Images were made using a X7-2T transducer on an iE33 ultrasound device (Philips, Eindhoven, The Netherlands). The pig was placed in the right lateral position, and the echo probe was inserted 50–60 cm into the esophagus. We used the 3D full volume option and temporarily interrupted mechanical ventilation to assess LV geometry and function. On day 7 we additionally obtained dobutamine stress-echocardiography to assess regional cardiac function. Images were analyzed in a blinded fashion with validated software, QLab 10.7 (Philips, Eindhoven, The Netherlands).

[5] = system: pig model of myocardial infarction; details: for 0 Min HR (bpm) / 30 Min MAP (mmHg) / 60 Min HR (bpm) / 90 Min MAP (mmHg) / 120 Min HR (bpm) / 150 Min MAP (mmHg): time after induction of MI
Experimental: All animal experiments and analyses were performed in a blinded, randomized fashion. […] Fifteen minutes before reperfusion, pigs were randomly assigned to IV treatment with either placebo (40 mL PBS) or a 10 mg/kg IZD334 loading dose (dissolved in 40 mL PBS) infusion for 30 min. After the first dose of IZD334, pigs were randomly assigned to three oral treatment regimens (1 mg/kg, 3 mg/kg, and 10 mg/kg). Dosing was based on in vivo pharmacokinetic findings in healthy pigs. The control (PBS) group received an oral placebo. Oral treatment was continued for six days. All pigs underwent transthoracic and three-dimensional transesophageal echocardiography before induction of ischemia and after 7 days. Furthermore, on day 7, cardiac magnetic resonance (CMR) imaging was performed. Subsequently, the LAD was occluded at the exact same site as during infarct induction. After verification of complete vessel occlusion, Evans Blue (E2129, Sigma-Aldrich, St. Louis, MO, USA) solution was infused in the left and right coronary arteries in order to assess the area at risk (AAR). Animals were sacrificed by exsanguination under anesthesia. […] Each slice was photographed at the basal and apical side with a ruler and analyzed with ImageJ software (NIH, Bethesda, MD, USA).

[6] = infarct tissue, 7 days after MI
[7] = myocardial tissue, 7 days after MI

CCN1CCC(S(=O)(=O)[N-]C(=O)Nc2c3c(cc4c2CCC4)CCC3)CC1.[K+] [IZD334]
IL-1β release [1]: dose-dependently reduced IL-1β release | IL-1β release after ex vivo stimulation [2]: 3968 ng/mL | CRP levels versus placebo ([3]; any time point during 7-day follow-up): No significant difference | Systemic troponin I levels versus placebo ([3]; 7-day follow-up): trends were similar between the treatment groups | Total leukocyte numbers versus placebo ([3]; circulating, 7-day follow-up): did not differ between groups | neutrophil counts versus placebo ([3]; circulating, 7-day follow-up): did not differ between groups | Intra-myocardial IL-1β levels versus placebo ([3]; infarct and border zone, 7 days after MI): without any difference among treatment arms | collagen formation (histology) versus placebo [3, 6]: no differences between the groups | total myocardial immune cell infiltration (histology) versus placebo [3, 6]: no differences between the groups | monocyte infiltration (histology) versus placebo [3, 7]: no differences between the groups | neutrophil infiltration (histology) versus placebo [3, 7]: no differences between the groups | Fractional area changes at mitral, mid-ventricular, and apical levels versus placebo ([4]; data not shown): equal between groups | Septal and inferolateral systolic wall thickness and thickening versus placebo ([4]; mid-ventricular level): did not differ between these groups | 0 Min HR (bpm) ([5]; 1 mg/kg group, n = 6): 70 ± 12 bpm | 30 Min MAP (mmHg) ([5]; 1 mg/kg group, n = 6): 85 ± 7 mmHg | 60 Min HR (bpm) ([5]; 1 mg/kg group, n = 6): 68 ± 9 bpm | 90 Min MAP (mmHg) ([5]; 1 mg/kg group, n = 6): 71 ± 12 mmHg | 120 Min HR (bpm) ([5]; 1 mg/kg group, n = 6): 67 ± 8 bpm | 150 Min MAP (mmHg) ([5]; 1 mg/kg group, n = 6): 79 ± 11 mmHg | 0 Min HR (bpm) ([5]; 3 mg/kg group, n = 7): 74 ± 4 bpm | 30 Min MAP (mmHg) ([5]; 3 mg/kg group, n = 7): 74 ± 13 mmHg | 60 Min HR (bpm) ([5]; 3 mg/kg group, n = 7): 72 ± 11 bpm | 90 Min MAP (mmHg) ([5]; 3 mg/kg group, n = 7): 58 ± 20 mmHg | 120 Min HR (bpm) ([5]; 3 mg/kg group, n = 7): 61 ± 7 bpm | 150 Min MAP (mmHg) ([5]; 3 mg/kg group, n = 7): 70 ± 23 mmHg | 0 Min HR (bpm) ([5]; 10 mg/kg group, n = 7): 73 ± 11 bpm | 30 Min MAP (mmHg) ([5]; 10 mg/kg group, n = 7): 72 ± 12 mmHg | 60 Min HR (bpm) ([5]; 10 mg/kg group, n = 7): 70 ± 11 bpm | 90 Min MAP (mmHg) ([5]; 10 mg/kg group, n = 7): 56 ± 19 mmHg | 120 Min HR (bpm) ([5]; 10 mg/kg group, n = 7): 62 ± 7 bpm | 150 Min MAP (mmHg) ([5]; 10 mg/kg group, n = 7): 62 ± 15 mmHg | Heart rate and mean arterial blood pressure versus placebo ([5]; first 2.5 h after induction of MI and subsequent compound administration, all dose groups): similar | pigs that died one day after infarct induction ([5]; low-dose (1 mg/kg) group, presumably due to late VF, also one animal in the placebo group): one animal
